SMILES strings stand for the structures.

On to `Cc1cccc(OCC(=O)NCC(=O)Nc2ccc(I)cc2)c1` [MM-36, N-[(4-Iodo-phenylcarbamoyl)-methyl]-2-m-tolyloxy-acetamide], for which the melting point (usually the temperature of the solid-liquid transition) lay in the range of 192 to 193 °C. Next, `O=C(COc1ccc(O)cc1)NCC(=O)Nc1c(F)cccc1F` [MM-35, N-[(2,6-difluorophenylcarbamoyl)methyl]-2-(4-hydroxyphenoxy)acetamide]: 197 to 198 °C; `Cc1ccc(S(=O)(=O)NCC(=O)Nc2c(F)cccc2F)cc1` [DR-2, N-(2,6-Difluoro-phenyl)-2-(toluene-4-sulfonylamino)-acetamide]: 129 to 130 °C. For the molecule `Cc1cccc(OCC(=O)NCC(=O)Nc2ccc(O)cc2)c1` [MM-37, N-[(4-hydroxyphenylcarbamoyl)methyl]-2-m-tolyloxyacetamide], the melting point fell in the range of 186 to 187 °C. `COc1ccc(OCC(=O)NCC(=S)Nc2c(F)cccc2F)cc1` [MM-26, N-[(2,6-Difluoro-phenylthiocarbamoyl)-methyl]-2-(4-methoxy-phenoxy)-acetamide] came in with a melting point of 160 to 161 °C. In turn, `COc1ccc(NC(=O)CNS(=O)(=O)/C=C/c2ccc(C)cc2)cc1` [DR-32, N-(4-Methoxy-phenyl)-2-(2-p-tolyl-ethenesulfonylamino)-acetamide] gave a melting point of 145 to 146 °C. Molecule `O=C(COc1ccc(F)cc1)NCC(=O)Nc1c(F)cccc1F` [MM-24, N-[(2,6-Difluoro-phenylcarbamoyl)-methyl]-2-(4-fluoro-phenoxy)-acetamide] gave a melting point of 194 to 195 °C. The molecule `O=C(CNC(=O)COc1ccc(F)cc1)NCc1ccccc1` [MM-17, N-(Benzylcarbamoyl-methyl)-2-(4-fluoro-phenoxy)-acetamide] showed a melting point of 165 to 166 °C.

In turn, `O=C(Cc1ccc(F)cc1)NNC(=S)NC(=O)Cc1ccccc1` [LW-22, N-{N′-[2-(4-Fluoro-phenyl)-acetyl]-hydrazinocarbothioyl}-2-phenyl-acetamide] returned a melting point of 182 to 183 °C.

As to `O=C(COc1ccc(F)cc1)NCC(=O)Nc1ccc(I)cc1` [MM-7, 2-(4-Fluoro-phenoxy)-N-[(4-iodo-phenylcarbamoyl)-methyl]-acetamide], the melting point lay in the range of 190 to 191 °C. Next, `CC(C)c1ccc(/C=C/C(=O)NC(=S)NNC(=O)Cc2cccs2)cc1` [LW-8, 3-(4-Isopropyl-phenyl)-N—[N′-(2-thiophen-2-yl-acetyl)-hydrazinocarbothioyl]-acrylamide]: 201 to 202 °C; `Cc1cccc(CC(=O)NNC(=S)NC(=O)/C=C/c2cc(Br)cc(Br)c2)c1` [LW-24, 3-(3,5-Dibromo-phenyl)-N—[N′-(2-m-tolyl-acetyl)-hydrazinocarbothioyl]-acrylamide]: 203 to 204 °C; `O=C(CNC(=O)COc1ccc(Br)cc1)NCc1ccccc1` [MM-16, N-(Benzylcarbamoyl-methyl)-2-(4-bromo-phenoxy)-acetamide]: 195 to 196 °C. Regarding `Cc1cccc(CC(=O)NNC(=S)NC(=O)Cc2ccccc2)c1` [LW-25, 2-Phenyl-N—[N′-(2-m-tolyl-acetyl)-hydrazinocarbothioyl]-acetamide], the melting point lay within 149 to 150 °C. For `Cc1cccc(OCC(=O)NCC(=O)Nc2c(F)cccc2F)c1` [MM-22, N-[(2,6-Difluoro-phenylcarbamoyl)-methyl]-2-m-tolyloxy-acetamide], the melting point lay in the range of 161 to 162 °C. Turning to `O=C(CNC(=O)COc1ccc(Br)cc1)NCc1ccc(Br)cc1` [MM-28, N-[(4-Bromo-benzylcarbamoyl)-methyl]-2-(4-bromo-phenoxy)-acetamide], the melting point lay in the range of 208 to 209 °C. Under `O=C(COc1ccc(Cl)cc1)NCC(=O)Nc1c(F)cccc1F` [MM-20, 2-(4-Chloro-phenoxy)-N-[(2,6-difluoro-phenylcarbamoyl)-methyl]acetamide] stands 184 to 185 °C.

Molecule `O=C(Cc1ccc(F)cc1)NNC(=S)NC(=O)CC1CCCCC1` [LW-34, 2-Cyclohexyl-N-{N′-[2-(4-fluoro-phenyl)-acetyl]-hydrazinocarbothioyl}-acetamide] had a melting point of 132 to 133 °C. Next, `Cc1ccc(/C=C/S(=O)(=O)NCC(=O)NCc2ccc(Br)cc2)cc1` [DR-31, N-(4-Bromo-benzyl)-2-(2-p-tolyl-ethenesulfonylamino)-acetamide]: 200 to 201 °C; `O=C(/C=C/c1c(F)cc(F)cc1F)NC(=S)NNC(=O)Cc1ccccc1` [LW-14, N—(N′-Phenylacetyl-hydrazinocarbothioyl)-3-(2,4,6-trifluoro-phenyl)-acrylamide]: 210 to 211 °C; `COc1ccc(NC(=O)CNC(=O)COc2ccc(Br)cc2)c(C)c1` [MM-3, 2-(4-Bromo-phenoxy)-N-[(4-methoxy-2-methyl-phenylcarbamoyl)-methyl]-acetamide]: 159 to 160 °C. `O=C(/C=C/c1ccc(-c2ccccc2)cc1)NC(=S)NNC(=O)Cc1cccs1` [LW-9, 3-Biphenyl-4-yl-N—[N′-(2-thiophen-2-yl-acetyl)-hydrazinocarbothioyl]-acrylamide] displayed a melting point of 231 to 232 °C.

Take `O=C(/C=C/c1c(F)cc(F)cc1F)NC(=S)NNC(=O)Cc1cccs1` [LW-11, N—[N′-(2-Thiophen-2-yl-acetyl)-hydrazinocarbothioyl]-3-(2,4,6-trifluoro-phenyl)-acrylamide]: the melting point lay within 207 to 208 °C. For `O=C(COc1ccc(Br)cc1)NCC(=S)Nc1c(F)cccc1F` [MM-25, 2-(4-Bromo-phenoxy)-N-[(2,6-difluoro-phenylthiocarbamoyl)-methyl]-acetamide], the melting point was in the range of 174 to 175 °C. Under `O=C(COc1ccc(OCc2ccccc2)cc1)NCC(=O)Nc1c(F)cccc1F` [MM-34, 2-(4-Benzyloxy-phenoxy)-N-[(2,6-difluoro-phenylcarbamoyl)-methyl]-acetamide] stands 145 to 146 °C; under `O=C(Cc1cc(F)cc(F)c1)NNC(=S)NC(=O)Cc1ccccc1` [LW-29, N-{N′-[2-(3,5-Difluoro-phenyl)-acetyl]-hydrazinocarbothioyl}-2-phenyl-acetamide], 178 to 179 °C. Under `O=C(/C=C/c1cc(Br)cc(Br)c1)NC(=S)NNC(=O)Cc1ccc(F)cc1` [LW-21, 3-(3,5-Dibromo-phenyl)-N-{N′-[2-(4-fluoro-phenyl)-acetyl]hydrazinocarbothioyl}-acrylamide] stands 195 to 196 °C; under `COc1ccc(NC(=O)CNC(=O)COc2ccc(Cl)cc2)c(C)c1` [MM-2, 2-(4-Chloro-phenoxy)-N-[(4-methoxy-2-methyl-phenylcarbamoyl)-methyl]-acetamide], 170 to 171 °C; under `O=C(CCc1ccccc1)NNC(=S)NC(=O)Cc1ccccc1` [LW-30, 2-Phenyl-N—[N′-(3-phenyl-propionyl)-hydrazinocarbothioyl]-acetamide], 88 to 90 °C.

`O=C(COc1ccc(Br)cc1)NCC(=O)Nc1cccc([N+](=O)[O-])c1` [MM-33, 2-(4-Bromo-phenoxy)-N-[(3-nitro-phenylcarbamoyl)-methyl]-acetamide] registered a melting point of 197 to 198 °C. Turning to `O=C(COc1ccc(Cl)cc1)NCC(=O)Nc1ccc(I)cc1` [MM-4, 2-(4-Chloro-phenoxy)-N-[(4-iodo-phenylcarbamoyl)-methyl]-acetamide], the melting point is 205 to 206 °C.

`O=C(/C=C/c1ccc(F)cc1)NC(=S)NNC(=O)c1cccs1` [LW-16, 3-(4-Fluoro-phenyl)-N—[N′-(thiophene-2-carbonyl)-hydrazinocarbothioyl]-acrylamide] gave a melting point of 217 to 218 °C.

Regarding `O=C(Cc1ccc(F)cc1)NNC(=S)NC(=O)Cc1c(F)cccc1F` [LW-33, 2-(2,6-Difluoro-phenyl)-N-{N′-[2-(4-fluoro-phenyl)-acetyl]-hydrazinocarbothioyl}-acetamide], the melting point lay in the range of 186 to 187 °C. Next, `COc1ccc(OCC(=O)NCC(=O)Nc2ccc(OC)cc2C)cc1` [MM-18, N-[(4-Methoxy-2-methyl-phenylcarbamoyl)-methyl]-2-(4-methoxy-phenoxy)-acetamide]: 143 to 144 °C. Molecule `O=C(COc1ccc(F)cc1)NCC(=O)Nc1ccc(Br)cc1` [MM-10, N-[(4-Bromo-phenylcarbamoyl)-methyl]-2-(4-fluoro-phenoxy)-acetamide] came in with a melting point of 192 to 193 °C. Next, `COc1cccc(OCC(=O)NCC(=O)Nc2ccc(OC)cc2C)c1` [MM-19, N-[(4-Methoxy-2-methyl-phenylcarbamoyl)-methyl]-2-(3-methoxy-phenoxy)-acetamide]: 115 to 116 °C. Regarding `O=C(/C=C/c1cc(Br)cc(Br)c1)NC(=S)NNC(=O)CCc1ccccc1` [LW-31, 3-(3,5-Dibromo-phenyl)-N—[N′-(3-phenyl-propionyl)-hydrazinocarbothioyl]acrylamide], the melting point lay within 213 to 214 °C. Under `COc1ccc(NC(=O)CNC(=O)COc2ccc(Br)cc2)cc1` [MM-11, 2-(4-Bromo-phenoxy)-N-[(4-methoxy-phenylcarbamoyl)-methyl]acetamide] stands 190 to 191 °C; under `O=C(COc1ccc(Br)cc1)NCC(=O)Nc1ccc(I)cc1` [MM-5, 2-(4-Bromo-phenoxy)-N-[(4-iodo-phenylcarbamoyl)-methyl]acetamide], 211 to 212 °C; under `O=C(Cc1cccs1)NNC(=S)NC(=O)Cc1ccccc1` [LW-18, 2-Phenyl-N—[N′-(2-thiophen-2-yl-acetyl)-hydrazinocarbothioyl]-acetamide], 161 to 162 °C. Molecule `COc1ccc(OCC(=O)NCC(=O)Nc2cccc(Br)c2)cc1` [MM-31, N-[(3-Bromo-phenylcarbamoyl)-methyl]-2-(4-methoxy-phenoxy)-acetamide] displayed a melting point of 174 to 175 °C. The molecule `O=C(Cc1ccc(F)cc1)NNC(=S)NC(=O)Cc1ccc(F)cc1` [LW-32, 2-(4-Fluoro-phenyl)-N-{N′-[2-(4-fluoro-phenyl)-acetyl]-hydrazinocarbothioyl}-acetamide] registered a melting point of 178 to 179 °C. `COc1ccc(OCC(=O)NCC(=O)Nc2c(F)cccc2F)cc1` [MM-23, N-[(2,6-Difluoro-phenylcarbamoyl)-methyl]-2-(4-methoxy-phenoxy)-acetamide] displayed a melting point of 164 to 165 °C.

For the origin of these results see patent US9216954B2, “Serine racemase inhibitor” (National University Corporation University of Toyama, priority 2012, dated 2015).
